Measured values from ChEMBL document CHEMBL1268861, “Isolation and characterization of diastereomers of discorhabdins H and K and assignment of absolute configuration to discorhabdins D, N, Q, S, T, and U” (J Nat Prod, 2010).

test system: P388; test: Cytotoxicity against mouse P388 cells; type: functional, cell-based

Structure (SMILES)	IC50
Cn1cnc(S[C@@H]2[C@@H]3C(=O)C=C4S[C@@H]5C[C@@]42C2=C(N5)C(=O)c4[nH]cc5c4C2=[N+]3CC5)c1C[C@H](N)C(=O)O [DISCORHABDIN H2]	> 8.2 µM
Cn1cnc(S[C@H]2[C@H]3C(=O)C=C4S[C@H]5C[C@]42C2=C(N5)C(=O)c4[nH]cc5c4C2=[N+]3CC5)c1C[C@H](N)C(=O)O [DISCORHABDIN H]	> 8.2 µM
Cn1cnc(SC2=CC(=O)C=C3S[C@@H]4C[C@]23C2=C(N4)C(=O)c3[nH]cc4c3C2=NCC4)c1C[C@H](N)C(=O)O [DISCORHABDIN K2]	> 8.2 µM
Cn1cnc(SC2=CC(=O)C=C3S[C@H]4C[C@@]23C2=C(N4)C(=O)c3[nH]cc4c3C2=NCC4)c1C[C@H](N)C(=O)O [DISCORHABDIN K]	> 8.2 µM
